Data: PubChem BioAssay (NCI)
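How tested: cells in 96-well plates exposed to compound for 48 hours at five concentrations. The concentration for 50% growth inhibition is given as GI50. TGI: total growth inhibition.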

System: MDA-MB-468 breast
Test: NCI-60 cell line screen, 48 h

## CC(=O)OC12C=CC(=O)N1c1ccccc1C(=O)O2 (centres undefined)
  GI50: > 100 µM
  TGI: > 100 µM

## COc1ccc(C(=O)/C=C/c2cc(-c3cc(OC)c(OC)c(OC)c3)n[nH]2)cc1OC
  GI50: 0.759 µM
  TGI: 2.18 µM

## CC[C@H]1[C@@H]2C=C[C@@H]3[C@H]4C/C=C\C(=O)NCCC[C@@H]5NC(=O)/C(=C(O)/C=C/[C@@H]4C[C@@H]3[C@H]2C[C@H]1C)C5=O
  GI50: 2.02 µM
  TGI: 5.16 µM

## COc1cc(Cn2c(-c3ccccc3)c(Cl)c3c2-c2oncc2CC3)cc(OC)c1
  GI50: 2.49 µM
  TGI: 7.69 µM

## O=C1OCC2=C1C(c1cccc(Br)c1)c1cc3c(cc1N2CCO)CCC3 (centres undefined)
  GI50: 0.0436 µM
  TGI: 1.14 µM

## CS(=O)(=O)CCNCc1nc(-c2ccc3ncnc(Nc4ccc(OCc5cccc(C(F)(F)F)c5)cc4)c3c2)cs1
  GI50: 1.55 µM
  TGI: > 20.9 µM

## CCOC(=O)Nc1ccc(-c2nc(-c3cccc(OCCN4CCOCC4)c3)c(-c3ccnc(Br)c3)[nH]2)cc1
  GI50: 1.68 µM
  TGI: 3.66 µM

## COc1cc(F)ccc1-c1ncnc(Nc2cccc(CS(C)(=N)=O)c2)n1 (centres undefined)
  GI50: 0.895 µM
  TGI: 5.56 µM

## Cc1nn(-c2ccc(Cl)cc2)c2nc3c(nc12)C(=O)c1ccccc1-3
  GI50: 58.5 µM
  TGI: > 100 µM

## O=C(CC1(O)C(=O)N(Cc2ccccc2)c2ccc(F)cc21)c1ccc(C(=O)NCC2CCC3(CC2)OOC2(CCCCC2)OO3)cc1 (centres undefined)
  GI50: 1.35 µM
  TGI: 3.39 µM

## O=C(N[C@@H](c1ccc(Cl)c(Cl)c1)C1CNC1)c1ccc2cnccc2c1
  GI50: 0.0617 µM
  TGI: 0.638 µM

## Cn1cc(C2=C(c3cn(CCCCO)c4ccccc34)C(=O)NC2=O)c2ccccc21
  GI50: 12 µM
  TGI: > 25 µM

## CC(C)Oc1ccc2cc(-c3nn(CC4CCNCC4)c4ncnc(N)c34)ccc2c1
  GI50: 6.9 µM
  TGI: 21 µM

## CC(=O)O[C@@H]1C[C@H]2O[C@@H]3C=C(C)CC[C@]3(C)[C@]1(C)[C@]21CO1
  GI50: 4.92 µM
  TGI: 18.2 µM

## Cc1cc2nc3c4cc(Cl)ccc4n(CC(=S)NCCN(C)C)c3nc2cc1C
  GI50: 1.95 µM
  TGI: 3.96 µM

## Cc1ncc(C(=O)Nc2ccc(CN3CCN(C)CC3)c(C(F)(F)F)c2)cc1C#Cc1cnc(N)c2ccncc12
  GI50: 1.87 µM
  TGI: 4.4 µM

## C[C@@H]1CC[C@@H]2[C@@H]1[C@H](OC(=O)/C=C/c1ccccc1)[C@]1(C3CCCCC3)C[C@@H](OC(=O)CO)[C@@]2(C)O1
  GI50: 3.33 µM
  TGI: 11.1 µM

## COc1cccc2c1C(=O)c1c(O)c3c(c(O)c1C2=O)C[C@](O)(C(=O)CO)C[C@H]3O[C@@H]1C[C@@H](NC(=O)CCCCCN(C)C2(c3ccc(F)cc3)CC3CCC2C3)[C@H](O)[C@@H](C)O1 (some centres undefined)
  GI50: 5.87 µM
  TGI: 13.5 µM

## O=C(c1ccccc1)c1cc2ccccc2o1
  GI50: 48.2 µM
  TGI: > 100 µM

## [Cl][Hg][c]1cc[c]([Hg][Cl])o1
  GI50: 1.58 µM
  TGI: 3.32 µM

## CCOC(=O)C(Cc1ccc(CCCC(=O)NCCC(=O)Nc2ccc3nc(C)sc3c2)cc1)C(=O)OCC
  GI50: 17.6 µM
  TGI: 58.1 µM

## CNCC#Cc1c(F)ccc2c1/C(=C/c1[nH]ccc1OC)C(=O)N2
  GI50: 0.279 µM
  TGI: 0.858 µM

## O=C(Nc1ccncc1)C(=O)c1cn(S(=O)(=O)c2ccc(F)cc2)c2ccccc12
  GI50: 1.67 µM
  TGI: > 100 µM

## COc1cc(-c2cc(-c3cc4c([nH]c5ccccc54)c(-c4cc(OC)c(OC)c(OC)c4)n3)cc(-c3ccccc3)n2)cc(OC)c1OC
  GI50: 1.73 µM
  TGI: 4.61 µM

## CCSc1ncnc2c1ncn2C1OC(CO)C(O)C1O (centres undefined)
  GI50: 0.583 µM
  TGI: 17.6 µM

## COc1cc2c(c(OC)c1OC)-c1ccc(SC)c(=O)cc1C(NC=O)CC2 (centres undefined)
  GI50: < 0.01 µM
  TGI: > 100 µM

## CCCN1C(=O)N(CCC)C2C1NC(=S)N2/N=C/C=C/c1ccccc1OC (centres undefined)
  GI50: 0.372 µM
  TGI: 17 µM

## C#C[C@]1(O)CCC2C3CCc4cc(O)ccc4C3CC[C@@]21C (some centres undefined)
  GI50: 1.84 µM
  TGI: 6.2 µM

## Cn1cc(-c2csc(-c3c[nH]c4ccc(F)cc34)n2)c2cnccc21
  GI50: 1.45 µM
  TGI: 3.19 µM

## CN1C(=O)N(C)C2C1NN=c1s/c(=C\c3ccc(Cl)cc3Cl)c(=O)n12 (centres undefined)
  GI50: 0.183 µM
  TGI: 33.4 µM

## COc1c(OC[C@H](O)CN2CCOCC2)ccc2c3n(c(=NC(=O)c4cccnc4C)nc12)CCN3
  GI50: 0.143 µM
  TGI: 1.95 µM

## C=C(C)[C@@H]1CC[C@]2(C)[C@H](CC=C3[C@@H]4CC(C)(C)CC[C@]4(C(N)=O)CC[C@]32C)[C@@]1(C)CCC#N
  GI50: 2.41 µM
  TGI: 8.42 µM

## C=CCCCCOc1ccccc1-c1cnc(OCCCCC=C)n1C
  GI50: 1.93 µM
  TGI: 7.86 µM

## Cc1ccc(NC(=O)CC2CC2)cc1-c1ccc(C(=O)NCC2CC2)cc1
  GI50: > 15 µM
  TGI: > 25 µM

## Nc1c(C(=O)Nc2ccncc2)sc2nc3c(cc12)CCCCCCCC3
  GI50: 0.966 µM
  TGI: 1.76 µM

## COc1ccc2[nH]cc(C3(c4c[nH]c5ccc(OC)cc45)C(=O)Nc4ccc(F)cc43)c2c1
  GI50: 2.07 µM
  TGI: 5.67 µM

## COc1ccc(-c2nn(-c3ccc(NC(=O)c4ccc(Cl)c(Cl)c4)cc3)cc2-c2ccncc2)cc1Cl
  GI50: 3.15 µM
  TGI: > 50 µM
